Data published in patent US20160053277A1, “Compositions Having Dicamba Decarboxylase Activity and Methods of Use” (PIONEER HI-BRED INTERNATIONAL, INC., priority 2013, published 2016).
“Also recorded” adds a separate entry of the source.

Legend:
[1] = system: Soybean seeds; assay: Soybean germination test on media with dicamba or decarboxylation product; type: in vivo; settings: FIG. 2, concentration not stated
[2] = system: Arabidopsis ecotype Columbia (Col-0); assay: Arabidopsis root growth inhibition assay; settings: 6 days
Protocol: Phytotoxicity of other major dicamba decarboxylated products was evaluated using Arabidopsis root growth inhibition assay. 4-chloro-3-methoxy phenol was purchased from Biogene Organics, Inc. (catalog number U06-642-79). 2,5-dichloro phenol was purchased from Sigma-Aldrich (catalog number D70007). Briefly, seeds of Arabidopsis ecotype Columbia (Col-0) were surface sterilized with 70% (v/v) ethanol for 5 minutes and 10% (v/v) bleach for 15 minutes. After being washed three times with distilled water, the seeds were germinated on 1× Murashige and Skoog (MS) medium with a pH of 5.7, 3% (w/v) sucrose, and 0.8% (w/v) agar. After incubation for 3.5 days, the seedlings were transferred to 1× MS medium containing B5 vitamin, 3% (w/v) sucrose, 1.2% (w/v) agar, and filter sterilized compounds was added to the media at 60° C. The concentrations of compounds including dicamba were 0 μM, 1.0 μM, and 10 μM. The seedlings were placed vertically, and the temperature maintained at 23° C. to allow root growth along the surface of the agar, with a photoperiod of 16 h of light and 8 h of dark.
After 6 days on media, root growth was evaluated. In wild type Arabidopsis, root growth inhibition is expected from auxin herbicide treatment.

Structure (SMILES)	soybean germination [1]	Arabidopsis root growth ([2]; 1 uM in medium)	Arabidopsis root growth ([2]; 10 uM in medium)
COc1cc(Cl)ccc1Cl [2,5-DCA, 2,5-dichloro anisole]	not affected	–	–
Oc1cc(Cl)ccc1Cl [2,5-dichloro phenol]	–	not affected; also recorded: did not have any effect	not affected; also recorded: did not have any effect
